Values quoted from earlier work in patent publication US6773610B2, “Method for controlling biofilm” (priority 1999, dated 2004).

Test system: bacteria and viruses
Conditions: versus chlorine

Which “Speed of deactivation of bacteria and viruses relative to chlorine” value does the source give for `O=[O+][O-]` [Ozone] here?
The value was 3125 times faster.
